Experimental data reported in US20260042755A1, “GPR6 INVERSE AGONISTS” (MapLight Therapeutics, Inc., priority 2022, published 2026).

Columns and labels:
GPR6 = molecular target: T1, GPR6 (Homo sapiens, UniProt P46095); assay: GPR6 antagonist functional cAMP assay (LANCE Ultra cAMP TR-FRET, CHO cells stably expressing GPR6); assay type: cell-based
T1 construct: expressed in transfected cells; host or cells: CHO cells
Protocol: (§1) Example 56. GPR6 and GPR3 Antagonist Functional cAMP Assay
(§2) CHO cells stably expressing GPR6 or GPR3 receptors were dissociated from cell culture flasks and incubated for 2 h at 37° C. in a 10 cm dish in a humidified incubator. Cells were dissociated, counted to have 1e6 cells/mL (4.5e6 cells needed/384-well plate), washed once in starved media, than in D-PBS and finally suspended in assay buffer (Krebs-Ringer Bicarbonate Buffer with 1800 mg/L glucose, without calcium chloride and sodium bicarbonate (Sigma) in the presence of 0.1% BSA and 150 μM of Ro 20-1724 Phosphodiesterase inhibitor).
(§3) Cells in suspension from above were plated in 384-well white Optiplate (PerkinElmer) at 10,000 cells/well/10 μl, briefly centrifuged prior direct addition of compounds ([…]) in 10 mM DMSO using a Tecan D300e Digital Dispenser, final DMSO in each well was normalized to 0.1%. Cells were incubated in the presence of compounds for 45 min at 37° C. in a humidified incubator.
(§4) To measure cAMP levels, LANCE® Ultra cAMP assay (Perkin Elmer), a homogeneous time-resolved fluorescence resonance energy transfer (TR-FRET) immunoassay was used following manufacturer's recommendations. Plates were shaken for 1 h at room temperature before reading on a Tecan InfiniteF200Pro multi-mode plate reader using standard FRET settings (Excitation 340 nm, Emission at 615 nm). FRET values were reported as readings obtained at 665 nm. Data were normalized to DMSO (0.1%) and reference compounds (100%) and fit to a 4-parameter logistical fit to generate antagonist IC50s.

GPR3 = molecular target: T2, GPR3 (Homo sapiens, UniProt P46089); assay: GPR3 antagonist functional cAMP assay (LANCE Ultra cAMP TR-FRET, CHO cells stably expressing GPR3); assay type: cell-based
T2 construct: expressed in transfected cells; host or cells: CHO cells
T2 sequence (P46089 whole entry, species assumed): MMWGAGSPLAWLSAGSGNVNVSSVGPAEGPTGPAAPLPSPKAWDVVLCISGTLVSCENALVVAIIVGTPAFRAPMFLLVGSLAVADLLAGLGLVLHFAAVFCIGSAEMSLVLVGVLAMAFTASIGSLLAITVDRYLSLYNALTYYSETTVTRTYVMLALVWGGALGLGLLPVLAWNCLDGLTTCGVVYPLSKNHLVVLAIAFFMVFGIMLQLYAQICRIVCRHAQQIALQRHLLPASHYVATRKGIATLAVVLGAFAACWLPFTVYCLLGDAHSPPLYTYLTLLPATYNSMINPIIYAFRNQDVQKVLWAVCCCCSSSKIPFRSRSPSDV
Protocol: as §1, §2, §3, §4

[1] = CHO cells stably expressing GPR6, cAMP assay (Example 24)
[2] = CHO cells stably expressing GPR3, cAMP assay (Example 24)
[3] = CHO cells stably expressing GPR6, cAMP assay
[4] = CHO cells stably expressing GPR3, cAMP assay
[5] = procedure as described in Example 24

T1 sequence (P46095 whole entry): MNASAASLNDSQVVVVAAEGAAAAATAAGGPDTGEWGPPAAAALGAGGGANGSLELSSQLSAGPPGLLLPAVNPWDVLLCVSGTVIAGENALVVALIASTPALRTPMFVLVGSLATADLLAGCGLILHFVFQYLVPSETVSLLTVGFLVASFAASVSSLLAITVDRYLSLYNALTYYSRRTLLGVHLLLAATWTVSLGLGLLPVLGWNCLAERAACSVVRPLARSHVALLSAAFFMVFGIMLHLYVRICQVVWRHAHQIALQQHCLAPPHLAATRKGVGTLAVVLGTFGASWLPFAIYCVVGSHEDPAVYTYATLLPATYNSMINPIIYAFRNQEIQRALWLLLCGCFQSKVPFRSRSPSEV

## CC(=O)N1CCc2nc(N3CCN(Cc4ccc(Cl)cc4Cl)CC3)c(-c3cnn(C)c3)nc2C1 [Compound 350, 1-(2-{4-[(2,4-dichlorophenyl)methyl]piperazin-1-yl}-3-(1-methyl-1H-pyrazol-4-yl)-5H,6H,7H,8H-pyrido[3,4-b]pyrazin-6-yl)ethan-1-one]
GPR6; procedure of Example 24
  IC50: 1000 to 30000 nM
GPR3; procedure of Example 24
  IC50: 1000 to 30000 nM

## Cn1cc(-c2nc3c(O)nccc3nc2N2CCC(Oc3ccc(F)cc3F)CC2)cn1 [Compound 376, 2-[4-(2,4-difluorophenoxy)piperidin-1-yl]-3-(1-methyl-1H-pyrazol-4-yl)pyrido[3,4-b]pyrazin-5-ol]
GPR6; procedure of Example 24
  IC50: 1000 to 30000 nM
GPR3; procedure of Example 24
  IC50: 1000 to 30000 nM

## CC(=O)N1CCc2nc(N3CCN(C(C)c4ccc(F)cc4F)CC3)c(-c3cnn(C)c3)nc2C1 (stereo not drawn) [Compound 729, 1-(2-{4-[1-(2,4-difluorophenyl)ethyl]-1-piperazinyl}-3-(1-methyl-4-pyrazolyl)-5,6,7,8-tetrahydro-1,4,6-triaza-6-naphthyl)-1-ethanone]
GPR6; procedure of Example 24
  IC50: 1000 to 30000 nM
GPR3; procedure of Example 24
  IC50: 1000 to 30000 nM

## CC(=O)N1CCc2nc(N3CCC(Oc4ccc(F)cc4F)CC3)c(-c3cccc(C(O)C(F)F)n3)nc2C1 (stereo not drawn) [Compound 210, 1-(3-[6-(2,2-difluoro-1-hydroxyethyl)pyridin-2-yl]-2-[4-(2,4-difluorophenoxy)piperidin-1-yl]-5H,6H,7H,8H-pyrido[3,4-b]pyrazin-6-yl)ethan-1-one]
GPR6; [1]
  IC50: 1000 to 30000 nM
GPR3; [2]
  IC50: 1000 to 30000 nM

## CC(=O)N1CCc2nc(N3CCC(Oc4ccc(F)cc4F)CC3)c(-c3cnn(CF)c3)nc2C1 [Compound 439, 1-{2-[4-(2,4-difluorophenoxy)piperidin-1-yl]-3-[1-(fluoromethyl)-1H-pyrazol-4-yl]-5H,6H,7H,8H-pyrido[3,4-b]pyrazin-6-yl}ethan-1-one]
GPR6; [1]
  IC50: < 100 nM
GPR3; [2]
  IC50: 1000 to 30000 nM

## CC(=O)N1CCc2nc(N3CC=CCC3)c(-c3cnn(C)c3)nc2C1 [Compound 422, 1-[3-(1-methyl-1H-pyrazol-4-yl)-2-(1,2,3,6-tetrahydropyridin-1-yl)-5H,6H,7H,8H-pyrido[3,4-b]pyrazin-6-yl]ethan-1-one]
GPR6; [1]
  IC50: ≥ 30000 nM
GPR3; [2]
  IC50: 1000 to 30000 nM

## CC(=O)N1CCc2nc(N3CCC(Oc4ccc(F)cc4F)CC3)c(-c3cncc(Cl)c3)nc2C1 [Compound 136, 1-[3-(5-chloropyridin-3-yl)-2-[4-(2,4-difluorophenoxy)piperidin-1-yl]-5H,6H,7H,8H-pyrido[3,4-b]pyrazin-6-yl]ethan-1-one]
GPR6; [1]
  IC50: 100 to 1000 nM
GPR3; [2]
  IC50: 1000 to 30000 nM

## CC(=O)N1CCc2nc(N3CCN(Cc4ccc(F)cc4F)C[C@@H]3C)c(-c3cnn(C)c3)nc2C1 (single isomer, unassigned) [Compound 232]
GPR6; [1]
  IC50: 1000 to 30000 nM
GPR3; [2]
  IC50: 1000 to 30000 nM

## CC(=O)N1CCc2nc(N3CCC(Oc4ccc(F)cc4)CC3)c(-c3cnn(C)c3)nc2C1 [Compound 421, 1-{2-[4-(4-fluorophenoxy)piperidin-1-yl]-3-(1-methyl-1H-pyrazol-4-yl)-5H,6H,7H,8H-pyrido[3,4-b]pyrazin-6-yl}ethan-1-one]
GPR6; [1]
  IC50: 1000 to 30000 nM
GPR3; [2]
  IC50: 1000 to 30000 nM

## Fc1ccc(OC2CCN(c3nc4cnccc4nc3-c3cnn(C4CCCCO4)c3)CC2)c(F)c1 (stereo not drawn) [Compound 97, 4-(2,4-difluorophenoxy)-1-{2-[1-(oxan-2-yl)-1H-pyrazol-4-yl]pyrido[3,4-b]pyrazin-3-yl}piperidine]
GPR6; [1]
  IC50: 1000 to 30000 nM
GPR3; [2]
  IC50: 1000 to 30000 nM

## CC(=O)N1CCc2nc(N3CCC(C(C)(O)c4ccc(F)cc4F)CC3)c(-c3cnn(C)c3)nc2C1 (stereo not drawn) [Compound 558, 1-(2-{4-[1-(2,4-difluorophenyl)-1-hydroxyethyl]-1-piperidyl}-3-(1-methyl-4-pyrazolyl)-5,6,7,8-tetrahydro-1,4,6-triaza-6-naphthyl)-1-ethanone]
GPR6; [3]
  IC50: 1000 to 30000 nM
GPR3; [4]
  IC50: 100 to 1000 nM

## CC(=O)N1CCc2nc(N3CCC(Oc4cccc(F)c4)C3)c(-c3cnn(C)c3)nc2C1 (stereo not drawn) [Compound 383, 1-{2-[3-(3-fluorophenoxy)pyrrolidin-1-yl]-3-(1-methyl-1H-pyrazol-4-yl)-5H,6H,7H,8H-pyrido[3,4-b]pyrazin-6-yl}ethan-1-one]
GPR6; [1]
  IC50: 1000 to 30000 nM
GPR3; [2]
  IC50: 1000 to 30000 nM

## CC(=O)N1CCc2nc(N3CCN(Cc4ccc(Cl)cc4Cl)CC3)c(-c3ccc(F)c(N)n3)nc2C1 [Compound 637, 1-[3-(6-amino-5-fluoro-2-pyridyl)-2-{4-[(2,4-dichlorophenyl)methyl]-1-piperazinyl}-5,6,7,8-tetrahydro-1,4,6-triaza-6-naphthyl]-1-ethanone]
GPR6; procedure of Example 24
  IC50: 100 to 1000 nM
GPR3; procedure of Example 24
  IC50: 1000 to 30000 nM

## CC(=O)N1CCc2nc(N3CCN(C(=O)c4ccc(Cl)c(C)c4)CC3)c(-c3cnn(C)c3)nc2C1 [Compound 539, 1-{2-[4-(4-chloro-3-toluoyl)-1-piperazinyl]-3-(1-methyl-4-pyrazolyl)-5,6,7,8-tetrahydro-1,4,6-triaza-6-naphthyl}-1-ethanone]
GPR6; [3]
  IC50: 1000 to 30000 nM
GPR3; [4]
  IC50: 1000 to 30000 nM

## CC(=O)N1CCc2nc(N3CCC(COc4ccccc4F)C3)c(-c3cnn(C)c3)nc2C1 (stereo not drawn) [Compound 323, 1-(2-{3-[(2-fluorophenoxy)methyl]pyrrolidin-1-yl}-3-(1-methyl-1H-pyrazol-4-yl)-5H,6H,7H,8H-pyrido[3,4-b]pyrazin-6-yl)ethan-1-one]
GPR6; procedure of Example 24
  IC50: 1000 to 30000 nM
GPR3; procedure of Example 24
  IC50: 1000 to 30000 nM

## CC(C)(O)C(O)c1cc2nc(-c3cnn(C4CC4)c3)c(N3CCC(Oc4ccc(F)cc4F)CC3)nc2cn1 (single isomer, unassigned) [Compound 590]
GPR6; [3]
  IC50: < 100 nM
GPR3; [4]
  IC50: 100 to 1000 nM

## CCn1cc(-c2nc3c(nc2N2CCC(Oc4ccc(F)cc4F)CC2)CCN(C(=O)N(C)C)C3)cn1 [Compound 300, 2-[4-(2,4-difluorophenoxy)piperidin-1-yl]-3-(1-ethyl-1H-pyrazol-4-yl)-N,N-dimethyl-5H,6H,7H,8H-pyrido[3,4-b]pyrazine-6-carboxamide]
GPR6; procedure of Example 24
  IC50: < 100 nM
GPR3; procedure of Example 24
  IC50: 1000 to 30000 nM

## CC(=O)N1CCc2nc(N3CCN(Cc4cc(F)cc(F)c4)CC3)c(-c3cnn(C)c3)nc2C1 [Compound 353, 1-(2-{4-[(3,5-difluorophenyl)methyl]piperazin-1-yl}-3-(1-methyl-1H-pyrazol-4-yl)-5H,6H,7H,8H-pyrido[3,4-b]pyrazin-6-yl)ethan-1-one]
GPR6; procedure of Example 24
  IC50: 1000 to 30000 nM
GPR3; procedure of Example 24
  IC50: 1000 to 30000 nM

## CNC(=O)c1ccc2nc(-c3nccn3COC)c(N3CCN(Cc4cc(Cl)ccc4Cl)CC3)nc2c1 [Compound 6, 3-{4-[(2,5-dichlorophenyl)methyl]piperazin-1-yl}-2-[1-(methoxymethyl)-1H-imidazol-2-yl]-N-methylquinoxaline-6-carboxamide]
GPR6; [5]
  IC50: 1000 to 30000 nM
GPR3; [5]
  IC50: 1000 to 30000 nM

## CCn1cc(-c2nc3cnc(N)cc3nc2N2CCC(Oc3ccc(F)cc3F)CC2)cn1 [Compound 294, 2-[4-(2,4-difluorophenoxy)piperidin-1-yl]-3-(1-ethyl-1H-pyrazol-4-yl)pyrido[3,4-b]pyrazin-7-amine]
GPR6; procedure of Example 24
  IC50: < 100 nM
GPR3; procedure of Example 24
  IC50: 1000 to 30000 nM

## CC(C)(O)[C@@H](O)c1cc2nc(N3CCC(=Cc4ccc(F)cc4F)CC3)c(-c3cnn(C4CC4)c3)nc2cn1 (single isomer, unassigned) [Compound 769]
GPR6; procedure of Example 24
  IC50: 100 to 1000 nM
GPR3; procedure of Example 24
  IC50: 1000 to 30000 nM

## CC(=O)N1CCc2nc(N3CCC(Oc4ccc(F)cc4F)CC3)c(-c3ccc(=O)[nH]c3)nc2C1 [Compound 51, 5-{6-acetyl-2-[4-(2,4-difluorophenoxy)piperidin-1-yl]-5H,6H,7H,8H-pyrido[3,4-b]pyrazin-3-yl}-1,2-dihydropyridin-2-one]
GPR6; [5]
  IC50: 100 to 1000 nM
GPR3; [5]
  IC50: 1000 to 30000 nM

## CC(=O)N1CCc2nc(N3CCC(C(=O)N(C)Cc4ccc(F)cc4F)C3)c(-c3cnn(C)c3)nc2C1 (stereo not drawn) [Compound 387, 1-[6-acetyl-3-(1-methyl-1H-pyrazol-4-yl)-5H,6H,7H,8H-pyrido[3,4-b]pyrazin-2-yl]-N-[(2,4-difluorophenyl)methyl]-N-methylpyrrolidine-3-carboxamide]
GPR6; [1]
  IC50: 1000 to 30000 nM
GPR3; [2]
  IC50: 1000 to 30000 nM

## CC(C)(O)[C@H](O)c1cc2nc(-c3cnn(CF)c3)c(N3CCC(Cc4ccc(F)cc4F)CC3)nc2cn1 (single isomer, unassigned) [Compound 787]
GPR6; procedure of Example 24
  IC50: < 100 nM
GPR3; procedure of Example 24
  IC50: < 100 nM

## CC(=O)N1CCc2nc(N3CCC(COc4ccccc4)C3)c(-c3cnn(C)c3)nc2C1 (stereo not drawn) [Compound 363, 1-[3-(1-methyl-1H-pyrazol-4-yl)-2-[3-(phenoxymethyl)pyrrolidin-1-yl]-5H,6H,7H,8H-pyrido[3,4-b]pyrazin-6-yl]ethan-1-one]
GPR6; procedure of Example 24
  IC50: 1000 to 30000 nM
GPR3; procedure of Example 24
  IC50: 1000 to 30000 nM

## C=CC(=O)N1CCc2nc(N3CCC(Oc4ccc(F)cc4F)CC3)c(-c3cn[nH]c3)nc2C1 [Compound 203, 1-{2-[4-(2,4-difluorophenoxy)piperidin-1-yl]-3-(1H-pyrazol-4-yl)-5H,6H,7H,8H-pyrido[3,4-b]pyrazin-6-yl}prop-2-en-1-one]
GPR6; [1]
  IC50: < 100 nM
GPR3; [2]
  IC50: 1000 to 30000 nM

## CC(=O)N1CCc2nc(C3CCC(Oc4ccc(F)cc4F)CC3)c(-c3ncco3)nc2C1 (stereo not drawn) [Compound 302, 1-{2-[4-(2,4-difluorophenoxy)cyclohexyl]-3-(1,3-oxazol-2-yl)-5H,6H,7H,8H-pyrido[3,4-b]pyrazin-6-yl}ethan-1-one]
GPR6; procedure of Example 24
  IC50: 1000 to 30000 nM
GPR3; procedure of Example 24
  IC50: 1000 to 30000 nM
